These results are taken from patent EP1192131B1, “METHOD OF INHIBITING AMYLOID PROTEIN AGGREGATION AND IMAGING AMYLOID DEPOSITS USING ISOINDOLINE DERIVATIVES” (Warner-Lambert Company LLC, priority 1999, dated 2000).

Values joined by “and” are separate entries in the source; they are usually repeats but may differ in a detail not shown here. Equal values may be shown once. Where only a bound is given, the exact number is not on record here.

In experiment [1] the target is T1, Aβ(1-40) (Homo sapiens, UniProt P05067). The experiment can be described thus: BASST (Beta-Amyloid Self-seeding, ThioflavinT), inhibition of self-seeded amyloid fibril growth. The format is biochemical. Also on record: 30 µM soluble Aβ (1-40) in deionized water in assay buffer. Conditions: 30 µM soluble Aβ (1-40), 37°C, 3 to 5 hours, thioflavin T fluorescence, letter in parentheses = lot of compound (no letter = Lot P). Here is the method: BASST (Beta-Amyloid Self-seeding, ThioflavinT)
(§1) An assay for inhibitors of self-seeded amyloid fibril growth
Assay Buffer - 50 mM sodium phosphate, pH 7.5, 100 mM NaCl, 0.02% NaN3, 1 M urea (filter and store at 4°C).
Soluble Aβ (1-40) - 2.2 mg/mL in deionized H2O (store in aliquots at -20°C, keep on ice when thawed) will self-seed after 1 week storage. Typically, the solution should be stored until no lag phase is seen in the assay.
Final assay conditions: 30 µM soluble Aβ (1-40) in deionized water in assay buffer. Compound to be tested is dissolved in DMSO, typically 5-50 mM stock, such that the final concentration of DMSO is <1% v/v in the assay.
Assay: Reaction mixture for 50 assays (on ice) comprised of 1 µL of soluble Aβ (1-40) + 13.5 µL assay buffer per assay. The following are the amounts of the components of the reaction mixture that result in each of the 50 assay wells. 50 µL soluble Aβ (1-40) 675 µL assay buffer
• 1) Prepare the reaction mix above by mixing the components and storing on ice. • 2) Pipet 14.5 µL of reaction mixture into each of 50 wells of a polystyrene U-bottom 96-well microtiter plate (Coming 25881-96) on ice. • 3) Add 1.7 µL of diluted compound to be tested to each well in a column of eight, including solvent control. Serial 3-fold dilutions from 1 mM (100 µM final) in assay buffer -urea = 7 dilutions + zero. Each 96-well plate can therefore accommodate 11 samples + 1 Congo Red control (0.039-5 µM final in 2-fold steps). • 4) Seal the plate with aluminum film and incubate for 10 minutes on ice. • 5) Raise the temperature to 37°C and incubate for 3 to 5 hours (depends on the lot of the peptide). • 6) Remove the aluminum film and add 250 µL/well of 5 µM thioflavin T (ThT) [T-3516, Sigma-Aldrich] in 50 mM glycine-NaOH, pH 8.5. Read fluorescence on a plate reader (ex = 440 nm/20 nm; em = 485 nm/20 nm) within 5 minutes.

Experiment [2] concerns the target T1, Aβ(1-40). As to the kind of experiment: BASSR (Beta-Amyloid Self-Seeding Radioassay), inhibition of self-seeded amyloid fibril growth. The class given is biochemical. Also on record: Soluble Aβ(1-40) peptide (Bachem, Torrance, CA); purchased Bachem, Torrance, CA. The note with it: 30 µM soluble Aβ (1-40) + 125I-labeled Aβ(1-40), 37°C, 3 to 5 hours, several values in a cell = repeat values, letter in parentheses = lot of compound (no letter = Lot P), (ppt), (v-shape) flags. As to the method: BASSR (Beta-Amyloid Self-Seeding Radioassay)
as §1
Assay Buffer - 50 mM sodium phosphate, pH 7.5, 100 mM NaCl, 0.02% NaN3, 1 M urea (filter and store at 4°C)
Soluble Aβ(1-40) peptide (Bachem, Torrance, CA) - 2.2 mg/mL in deionized H2O (stored in aliquots at -20°C, keep on ice when thawed) will self-seed after 1 week storage. Typically, the solution should be stored until no lag phase is seen in the assay.
^125I-labeled Aβ (1-40) - 150K-350K cpm/µL in 100% acetonitrile -0.1% trifluoroacetic acid (TFA) -1% β-mercaptoethanol (aliquots stored at -20°C) ^125I-labeled Aβ(1-40) can be made in accordance with the procedure set forth by H. LeVine, III in Neurobiol. Aging, 16:755 (1995), which is hereby incorporated by reference, or this reagent may be purchased from Amersham, Arlington Heights, Illinois.
Final assay conditions: 30 µM soluble Aβ (1-40) in deionized water in assay buffer + 20-50K cpm ^125I-labeled Aβ(1-40) per assay. Compound to be tested is dissolved in dimethylsulfoxide (DMSO), typically 5-50 mM stock, such that the final concentration of DMSO is <1% v/v in the assay.
Assay: Reaction mixture for 50 assays (on ice) is comprised of 0.1-0.2 µL of ^125I-labeled A^125I-labeled Aβ(1-40) + 1 µL of soluble Aβ (1-40) + 13.5 µL assay buffer per assay. The following are the amounts of the components of the reaction mixture sufficient for 50 assay wells. 5-10 µL ^125I-labeled Aβ (1-40) dried down 675 µL assay buffer 50 µL soluble Aβ (1-40)
• 1) Prepare reaction mixture above by mixing components and storing on ice. • 2) Pipet 14.5 µL of reaction mixture into each of 50 wells on a polypropylene U-bottom 96-well microtiter plate on ice (Costar 3794). • 3) Add 1.7 µL, of diluted compound to be tested to each well in a column of eight, including solvent control. Serial 3-fold dilutions from 1 mM (100 µM final) in assay buffer -urea = 7 dilutions + zero. Each 96-well plate can therefore accommodate 11 samples + 1 Congo Red control (0.039-5 µM final in 2-fold steps). • 4) Seal the plate with aluminum film (Beckman 538619) and incubate for 10 minutes on ice. • 5) Raise the temperature to 37°C and incubate for 3 to 5 hours (depending on the lot of the peptide). • 6) Remove the aluminum film and add 200 µL/well of ice cold assay buffer with urea, collecting the radiolabeled fibrils by vacuum filtration through 0.2 µm pore size GVWP filters in 96-well plates (Millipore MAGV N22, Bedford, MA). Determine the radioactivity of the filters using standard methods well-known to those skilled in the art.

The mark [3] stands for this setting: read-out: BASST IC50 (converted).
The mark [4] stands for this setting: read-out: BASSR IC50 (converted).

T1 sequence (P05067 672-711): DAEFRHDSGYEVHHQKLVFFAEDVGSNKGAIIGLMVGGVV

Turning to `O=C(O)c1ccccc1Nc1ccc2c(c1)CN(c1ccc(Cl)c(C(F)(F)F)c1)C2` [Example 10, 2-[2-(4-Chloro-3-trifluoromethylphenyl)-2,3-dihydro-1H-isoindol-5-ylamino]benzoic acid], the IC50 (usually the concentration needed to halve the response being measured) on Aβ(1-40) [1] (read-out: BASST IC50) was 3 µM; at Aβ(1-40) [2] (read-out: BASSR IC50), 100 µM and 58 µM and 55 µM and 70 µM.

Regarding `O=C(O)c1cc([N+](=O)[O-])ccc1Nc1ccc2c(c1)CN(c1cccc(F)c1)C2` [Example 20, 2-[2-(3-Fluoro-phenyl)-2,3-dihydro-1H-isoindol-5-ylamino]-5-nitro-benzoic acid], the results for the IC50 on Aβ(1-40) [1] (setting [3]) and at Aβ(1-40) [2] (setting [4]) were 2 µM and over 100 µM, respectively.

For `Cc1ccc(N2Cc3ccc(Nc4ccc([N+](=O)[O-])cc4C(=O)O)cc3C2)cc1C` [Example 12, 2-[2-(3,4-Dimethyl-phenyl)-2,3-dihydro-1H-isoindol-5-ylamino]-5-nitro-benzoic acid], the 50% inhibitory concentration (IC50) was 1.1 µM on Aβ(1-40) [1] (setting [3]) and over 100 µM at Aβ(1-40) [2] (setting [4]).

Turning to `COc1cccc(N2Cc3ccc(Nc4ccc([N+](=O)[O-])cc4C(=O)O)cc3C2)c1` [Example 21, 2-[2-(3-Methoxy-phenyl)-2,3-dihydro-1H-isoindol-5-ylamino]-5-nitro-benzoic acid], the IC50 at Aβ(1-40) [1] (setting [3]) is 0.7 µM; at Aβ(1-40) [2] (setting [4]), 7 µM and 2.2 µM and 2 µM.

Take “2-[2-(3,4-Dimethylphenyl)-2,3-dihydro-1H-isoindol-5-ylamino]benzoic acid [Example 9]”: the IC50 on Aβ(1-40) [1] (setting [3]) is 1.5 µM; on Aβ(1-40) [2] (setting [4]) it was over 100 µM.

Regarding `O=C(O)c1ccccc1Nc1ccc2c(c1)CN(c1cccc(F)c1)C2` [Example 22, 2-[2-(3-Fluoro-phenyl)-2,3-dihydro-1H-isoindol-5-ylamino]-benzoic acid], the IC50 is 6 µM and 2 µM at Aβ(1-40) [1] (setting [3]); 10 µM and 3 µM (2×) and 6.5 µM and 8 µM at Aβ(1-40) [2] (setting [4]).

For the molecule `COc1cccc(N2Cc3ccc(Nc4ccccc4C(=O)O)cc3C2)c1` [Example 26, 2-[2-(3-Methoxy-phenyl)-2,3-dihydro-1H-isoindol-5-ylamino]-benzoic acid], the figures for the IC50 at Aβ(1-40) [1] (setting [3]) and on Aβ(1-40) [2] (setting [4]) were 10 µM and over 100 µM, respectively.

Take `COc1cc(N2Cc3ccc(Nc4ccccc4C#N)cc3C2)cc(OC)c1OC` [Example 25, 2-[2-(3,4,5-Trimethoxy-phenyl)-2,3-dihydro-1H-isoindol-5-ylamino]-benzonitrile]: the 50% inhibitory concentration (IC50) at Aβ(1-40) [1] (setting [3]) is 15 µM; at Aβ(1-40) [2] (setting [4]) it was over 100 µM.

For the molecule `Nc1ccc(Nc2ccc3c(c2)CN(c2ccc(Cl)c(Cl)c2)C3)c(C(=O)O)c1` [Example 17, 5-Amino-2-[2-(3,4-dichloro-phenyl)-2,3-dihydro-1H-isoindol-5-ylamino]-benzoic acid], the IC50 was 1.5 µM at Aβ(1-40) [1] (setting [3]); 20 µM and 80 µM at Aβ(1-40) [2] (setting [4]).

Regarding `O=C(O)c1cc([N+](=O)[O-])ccc1Nc1ccc2c(c1)CN(c1ccccc1)C2` [Example 18, 5-Nitro-2-(2-phenyl-2,3-dihydro-1H-isoindol-5-ylamino)-benzoic acid], the IC50 at Aβ(1-40) [1] (setting [3]) was 0.9 µM and 1 µM and 0.6 µM; on Aβ(1-40) [2] (setting [4]) it was 7 µM and 4 µM and 5 µM.

For “2-[2-(3-chlorophenyl)-2,3-dihydro-1H-isoindol-5-ylamino]benzoic acid [Example 7]”, the IC50 on Aβ(1-40) [1] (setting [3]) is 1.1 µM; at Aβ(1-40) [2] (setting [4]), 90 µM and 80 µM and > 100 µM.

On to `O=C(O)c1cc([N+](=O)[O-])ccc1Nc1ccc2c(c1)CN(c1ccc(Cl)cc1)C2` [Example 15, 2-[2-(4-Chloro-phenyl)-2,3-dihydro-1H-isoindol-5-ylamino]-5-nitro-benzoic acid], for which the half-maximal inhibitory concentration (IC50) was 0.6 µM on Aβ(1-40) [1] (setting [3]) and over 100 µM on Aβ(1-40) [2] (setting [4]).

As for “2-[2-(4-chlorophenyl)-2,3-dihydro-1H-isoindol-5-ylamino]benzoic acid [Example 8]”, the results for the IC50 on Aβ(1-40) [1] (setting [3]) and at Aβ(1-40) [2] (setting [4]) were 1 µM and over 100 µM, respectively.

`O=C(O)c1ccccc1Nc1ccc2c(c1)CN(c1ccc(Cl)c(Cl)c1)C2` [Example 4, 2-[2-(3,4-Dichlorophenyl)-2,3-dihydro-1H-isoindol-5-ylamino]benzoic acid]: the half-inhibitory concentration (IC50) at Aβ(1-40) [1] (setting [3]) is 2 µM; at Aβ(1-40) [2] (setting [4]), 12 µM and 11 µM (2×) and 15 µM (3×).

`COc1cc(Nc2ccc3c(c2)CN(c2ccc(Cl)c(Cl)c2)C3)c(C(=O)O)cc1[N+](=O)[O-]` [Example 6, 2-[2-(3,4-Dichlorophenyl)-2,3-dihydro-1H-isoindol-5-ylamino]-4-methoxy-5-nitro-benzoic acid]: the half-inhibitory concentration (IC50) on Aβ(1-40) [1] (setting [3]) is 1 µM and 1.5 µM; at Aβ(1-40) [2] (setting [4]), 7 µM (2×) and 12 µM and 4 µM and 5 µM.

As for `O=C(O)c1cc([N+](=O)[O-])ccc1Nc1ccc2c(c1)CN(c1ccc(Cl)c(C(F)(F)F)c1)C2` [Example 19, 2-[2-(4-Chloro-3-trifluoromethyl-phenyl)-2,3-dihydro-1H-isoindol-5-ylamino]-5-nitro-benzoic acid], the half-inhibitory concentration (IC50) is 1 µM on Aβ(1-40) [1] (read-out: BASST IC50); 1.1 µM and 1 µM at Aβ(1-40) [2] (read-out: BASSR IC50).

As for `O=C(O)c1cc(F)ccc1Nc1ccc2c(c1)CN(c1ccc(Cl)c(Cl)c1)C2` [Example 23, 2-[2-(3,4-Dichloro-phenyl)-2,3-dihydro-1H-isoindol-5-ylamino]-5-fluoro-benzoic acid], the IC50 on Aβ(1-40) [1] (setting [3]) was 3 µM and 2 µM (2×); at Aβ(1-40) [2] (setting [4]), > 100 µM and 50 µM and 70 µM.

As for `Clc1ccc(N2Cc3ccc(Nc4ccccc4-c4nnn[nH]4)cc3C2)cc1Cl` [Example 16, [2-(3,4-Dichloro-phenyl)-2,3-dihydro-1H-isoindol-5-yl]-[2-(1H-tetrazol-5-yl)-phenyl]-amine], the IC50 on Aβ(1-40) [1] (setting [3]) is 1.8 µM; at Aβ(1-40) [2] (setting [4]) it was over 100 µM.
